Measurements taken from the SangsterLogP compilation.

How the values were obtained:
[1] = method code SF-AS, from DOI: 10.1093/ajhp/38.9.1308, PMID: 7282713; details: pH 7.4
[2] = method code SF-AS, from Korenman, I.; Nefedova, E.; Dyukova, I. (1977). Extraction of picramic acid. Int J Clin Pharmacol Ther Toxicol, 51(5)734-735.; details: pH 7.4
[3] = method code SF, from DOI: 10.1016/0014-2999(70)90221-9, PMID: 5440297; details: pH 7.4
[4] = method code SF, from DOI: 10.1016/0005-2744(69)90103-x, PMID: 4387594
[5] = method code SF, from PMID: 8265709; details: pH 7.4
[6] = method code SF, from DOI: 10.1016/j.ejps.2014.11.002, PMID: 25447745; details: pH 7.4
[7] = method code SF-GLC, from DOI: 10.1021/je970020p
[8] = not given; remark: listed apart in the source
[9] = not given; remark: listed apart in the source
[10] = not given; remark: listed apart in the source
[11] = method code SF, from DOI: 10.1007/bf00253009, PMID: 7273265; details: pH 7.4
[12] = method code SF-CR+AS, from Korenman, I.; Kotelyanskaya, B.; Nefedova, A. (1976). Extraction of mononitrophenols from aqueous solutions. Zh. Prikl. Khim., 49(5)1150-1152.
[13] = not given; remark: listed apart in the source
[14] = not given; remark: listed apart in the source
[15] = not given; remark: listed apart in the source
[16] = method code SF-GLC, from DOI: 10.1002/jps.2600641120, PMID: 1195116
[17] = method code SF-CR+AS, from Korenman, I.; Lineva, S.; Tishchenko, M. (1979). The influence of substituents on the extraction of phenols. Russ. J. Phys. Chem., 53(11)1678-1679.; details: pH 2.5
[18] = not given; remark: listed apart in the source
[19] = pH 5.6
[20] = not given; remark: listed apart in the source
[21] = not given; remark: listed apart in the source
[22] = method code SF-AS, from Korenman, I.; Lineva, S.; Gezikova, N. (1978). Extraction of naphthol-sulfonic acids from aqueous solution. Zh. Prikl. Khim., 51(4)869-871.
[23] = not given; remark: listed apart in the source
[24] = method code SF-AS, from DOI: 10.1016/s0045-6535(98)00368-3
[25] = from Tehrany, E.A.; Desobry, S. (2005). Comparison between the different calculation methods of partition coefficient of aroma compounds with a difference chemical classes in octanol/water system. …
[26] = not given; remark: listed apart in the source
[27] = method code SF, from DOI: 10.1080/09553009014551091, PMID: 1970998; details: pH 7.4
[28] = method code SF-RI, from Korenman, M.; Dobromyslova, M. (1975). Distribution of cellosolves between organic solvents and water. Zh. Prikl. Khim., 48(12)2791-2794.
[29] = method code SF-AS, from DOI: 10.1016/0045-6535(84)90003-1
[30] = method code SF-AS, from DOI: 10.1016/0006-2952(74)90620-0, PMID: 4822742; details: pH 7.4
[31] = method code G-HPLC, from He, Y.; Zhao, Y.; Wang, L.; An, F.; Mo, H.; Yang, K.; Liu, Y.; Yu, G.; Xu, X. (1994). Determination of n-octanol/water partition coefficient of organic compound. Huanjing Huaxue, 13(3)195-197.
[32] = method code SF, from Kruglik, P.; Leschev, M.; Rakhman'ko, M.; Bubel, N.; Asratyan, V. (1991). Extraction of 1,2,4-triazole and its derivatives by organic solvents. 64(8)1721-1724.
[33] = method code SF-AS, from Halmekoski, J.; Hannikainen, H. (1964). Rm values of hydroxy-substituted benzoic acids and partition coefficients of the acids between water and aliphatic alcohols. Suomen Kemist. B, 37, 221-226.
[34] = method code SF-GLC, from DOI: 10.1016/s0021-9673(00)92516-0
[35] = not given; remark: listed apart in the source
[36] = method code SF, from DOI: 10.1016/j.tca.2016.07.020; details: pH 7.4
[37] = method code SF, from DOI: 10.1021/jm00307a001, PMID: 5637185
[38] = method code SF-GLC,RC, from DOI: 10.1016/0048-3575(73)90050-3
[39] = method code SF, from DOI: 10.1248/yakushi1947.93.11_1452, PMID: 4273378
[40] = method code SF-RC, from DOI: 10.1111/j.2042-7158.1987.tb03173.x, PMID: 2886623
[41] = not given; remark: listed apart in the source
[42] = method code SF-AS, from DOI: 10.1016/s0022-3565(25)24763-2, PMID: 2019981; details: pH 7.4
[43] = method code SF, from DOI: 10.1016/0043-1354(79)90201-x
[44] = method code SF-CR+AS, from Korenman, Y. (1973). Extraction of guaiacol from aqueous solutions. Zh. Prikl. Khim., 46(6)1391-1394.; details: pH 2.0
[45] = method code SF-GLC, from DOI: 10.1021/ac00241a023
[46] = from Büchel, H.; Draber, W.; Trebst, A.; Pistorius, E. (1966). Inhibition of photosynthetic reactions in isolated chloroplasts by benzimidazole-type herbicides and their structure-activity relation, …; details: pH 7.0
[47] = method code SF-HPLC, from DOI: 10.1016/s0045-6535(01)00105-9, PMID: 11695583
[48] = method code SF-CR+AS, from Korenman, Y. (1974). Extraction of 2-halophenols from aqueous solutions. Zh. Prikl. Khim., 47(7)1663-1666.
[49] = not given; remark: listed apart in the source
[50] = method code SF-AS, from DOI: 10.1016/0006-2952(65)90227-3, PMID: 14322976; details: pH 6.8

## Cc1ncsc1CCCl
[1]
  logD: 2.12

## CC(C)c1cnc([N+](=O)[O-])n1C
[2]
  logD: 1.09

## O=C[C@H](O)[C@H](O)[C@H](O)CO
[3]
  logD: -2.32

## Nc1cccc(Br)c1
[4]
  logP: 2.1

## Cn1c(=O)c2[nH]cnc2n(C)c1=O
[5]
  logD: -0.18

## O=[N+]([O-])O[C@H]1CO[C@H]2[C@@H]1OC[C@H]2O[N+](=O)[O-]
[6]
  logD: 1.2

## Clc1c(Cl)c(Cl)c(Cl)c(Cl)c1Cl
[7]
  logP: 5.74

## OCCC(F)(F)C(F)(F)C(F)(F)C(F)(F)F
other
  logP: 3.28

## CCCCCO
[8]
  logP: 1.41

## Oc1c(Cl)c(Cl)c(Cl)c(Cl)c1Cl
[9]
  logP: 4.79

## Cc1cccc(O)c1
[10]
  logP: 2.01

## O=C(Cn1ccnc1[N+](=O)[O-])N(CO)CO
[11]
  logD: -1.59

## O=[N+]([O-])c1ccc(O)cc1
[12]
  logP: 1.95

## Oc1c(Cl)cc(Cl)c(Cl)c1O
[13]
  logP: 3.6

## Oc1cc(Br)ccc1Br
[14]
  logP: 3.22

## O=C(O)c1ccccc1F
[15]
  logP: 1.63

## C1CCc2nnnn2CC1
[16]
  logP: 0.14

## Cc1cc(N=O)ccc1O
[17]
  logD: 1.71

## Clc1ccc(Cl)cc1
[18]
  logP: 3.48

## NC(=O)c1ccc([N+](=O)[O-])cc1
[19]
  logD: 0.82

## Oc1cc(Cl)c(Cl)cc1Cl
[20]
  logP: 3.63

## CCC1C(=O)NC(=O)N(C)C1=O (stereo unspecified)
[21]
  logP: 0.15

## CC1=C(C(N)=O)SCCO1
[22]
  logP: -0.22

## Brc1ccc(Br)cc1
[23]
  logP: 3.89

## COc1cc(OC)ncn1
[24]
  logP: 0.96

## CCCCCC=O
[25]
  logP: 1.85

## Oc1c(Br)cc(Br)cc1Br
[26]
  logP: 4.24

## O=[N+]([O-])c1nccn1COC(CO)CO
[27]
  logD: -1.03

## CC(C)OCCO
[28]
  logP: 0.05

## Oc1cc(Cl)cc(Cl)c1Cl
[29]
  logP: 3.84

## O=S1(=O)N=CNc2ccccc21
[30]
  logD: 0.18

## Clc1ccccc1Cl
[31]
  logP: 3.34

## CC(C)CCn1cnc([N+](=O)[O-])n1
[32]
  logP: 1.26

## O=C(O)c1cccc(O)c1O
[33]
  logP: 1.2

## ClCc1ccc(Cl)cc1Cl
[34]
  logP: 3.82

## Oc1cccc(Cl)c1Cl
[35]
  logP: 2.98

## NC(=S)c1ccccn1
[36]
  logD: 1.14

## C=CC(CC)OC(N)=O (stereo unspecified)
[37]
  logP: 1.09

## ClCc1ccccc1
[38]
  logP: 2.3

## CNC(=O)c1cccnc1
[39]
  logP: 0

## OC[C@@H](O)[C@@H](O)[C@H](O)[C@H](O)CO (racemic)
[40]
  logP: -2.47

## CSc1ncnc2[nH]cnc12
[41]
  logP: 0.57

## CCn1cccc(O)c1=O
[42]
  logD: 0.08

## NC(=O)COCc1ccco1
[43]
  logP: -0.11

## COc1ccccc1O
[44]
  logD: 1.35

## Brc1cc(Br)c(Br)cc1Br
[45]
  logP: 5.13

## Clc1nc2c(Cl)c(Cl)c(Cl)c(Cl)c2[nH]1
[46]
  logD: 4.53

## Brc1ccc(Br)c(Br)c1Br
[47]
  logP: 5

## Oc1ccccc1I
[48]
  logP: 2.64

## CC(C)(C)OCCO
[49]
  logP: 0.39

## O=c1ccccc(O)c1
[50]
  logD: 0.81
